Each compound was assayed on HCV 1b_Huh-Luc/Neo-ET cell line persistently expressing a bicistronic genotype 1b replicon in Huh 7 cells (assay: HCV replicon assay (luciferase readout, 72 h)). Settings: Hepatitis C virus, Huh-7, 72 h, read-out: Inhibition of HCV genotype 1b.
Assay type: cell-based, HCV genotype 1b
Protocol: Biological activity of the compounds of the invention was determined using an HCV replicon assay. The HCV 1b_Huh-Luc/Neo-ET cell line persistently expressing a bicistronic genotype 1b replicon in Huh 7 cells was obtained from ReBLikon GMBH. This cell line was used to test compound inhibition using luciferase enzyme activity readout as a measurement of compound inhibition of replicon levels.
On Day 1 (the day after plating), each compound is added in triplicate to the cells. Plates incubated for 72 h prior to running the luciferase assay. Enzyme activity was measured using a Bright-Glo Kit (cat. number E2620) manufactured by Promega Corporation. The following equation was used to generate a percent control value for each compound.
% Control=(Average Compound Value/Average Control)*100
The EC50 value was determined using GraphPad Prism and the following equation:
Y=Bottom+(Top-Bottom)/(1+10̂((LogIC50−X)*HillSlope))
EC50 values of compounds are determined several times in the replicon assay.
Example compounds of the disclosed invention are illustrated in Tables 1-16 attached as appendices. The tables show inhibitory activity of many of the example compounds with respect to HCV 1b. […] The tables further provide mass spectrometry results for the synthesized example compounds.
COC(=O)N[C@H](C(=O)N1CCC[C@H]1c1nc2ccc(C#Cc3ccc(-c4cnc([C@@H]5CCCN5C(=O)[C@H](NC(=O)OC)c5ccccc5)[nH]4)cc3)cc2[nH]1)C(C)C [Compound 1022] showed an EC50 of under 1 nM.
In the case of O=C(N[C@@H](C(=O)N1CCC[C@H]1c1cc(-c2ccc(C#Cc3ccc(-c4cnc([C@@H]5CCCN5C(=O)[C@H](NC(=O)C5CC5)c5ccccc5)[nH]4)cc3)cc2)n[nH]1)c1ccccc1)C1CC1 [Compound 212], the EC50 is reported as under 1 nM.
For C(#Cc1ccc2nc([C@@H]3CCCN3)[nH]c2c1)c1ccc(-c2cnc([C@@H]3CCCN3)[nH]2)cc1 [Compound 1035], the EC50 was 10 to 999 nM.
CN(C)[C@@H](C(=O)N1CCC[C@H]1c1ncc(C#Cc2ccc(C#Cc3cnc([C@@H]4CCCN4C(=O)[C@@H](c4ccccc4)N(C)C)[nH]3)cc2)[nH]1)c1ccccc1 [Compound 305] gave an EC50 of under 1 nM.
For COC(=O)N[C@@H](C(=O)N1CCC[C@H]1c1ncc(-c2ccc(C#Cc3ccc(-c4cnc([C@@H]5CCCN5C(=O)[C@H]5CCCN5C)[nH]4)cc3)cc2)[nH]1)c1ccccc1 [Compound 187], the EC50 was under 1 nM.
In the case of CC(C)[C@H](NC(=O)N1CC[C@@H](O)C1)C(=O)N1CCC[C@H]1c1ncc(-c2ccc(C#Cc3ccc(-c4cnc([C@@H]5CCCN5C(=O)[C@@H](NC(=O)N5CC[C@@H](O)C5)C(C)C)[nH]4)cc3)cc2)[nH]1 [Compound 968], the EC50 is reported as 10 to 999 nM.
For COC(=O)N[C@H](C(=O)N1CCC[C@H]1c1ncc(-c2ccc(C#Cc3ccc(-c4cnc([C@@H]5CCCN5C(=O)[C@@H](NC(=O)OC)C(C)C)[nH]4)cn3)cc2)[nH]1)C(C)C [Compound 1009], the EC50 was under 1 nM.
For COC(=O)N[C@@H](CC(=O)N1CCC[C@H]1c1ncc(-c2ccc(C#Cc3ccc4nc([C@@H]5CCCN5C(=O)C[C@H](NC(=O)OC)C(C)C)[nH]c4c3)cc2)[nH]1)C(C)C [Compound 1064], the EC50 was 10 to 999 nM.
With COC(=O)N[C@@H](C(=O)N1CCC[C@H]1c1ncc(-c2ccc(C#Cc3ccc(-c4cnc([C@@H]5CCCN5C(=O)[C@@H](c5ccccc5)N(C)C)[nH]4)cc3)cc2)[nH]1)c1ccccc1 [Compound 174] the EC50 was under 1 nM.
In the case of COC(=O)N[C@H](C(=O)N1CCC[C@H]1c1nc2c([nH]1)-c1ccc(C#Cc3ccc(-c4cnc([C@@H]5CCCN5C(=O)[C@@H](NC(=O)OC)C5CCOCC5)[nH]4)cc3)cc1CCC2)C(C)C [Compound 1097], the EC50 is reported as under 1 nM.
For O=C(N[C@@H](C(=O)N1CCC[C@H]1C(=O)Nc1ccc(C#Cc2cnc([C@@H]3CCCN3C(=O)[C@H](NC(=O)C3CC3)c3ccccc3)[nH]2)cc1)c1ccccc1)C1CC1 [Compound 117], the EC50 was under 1 nM.
Work on COC(=O)N[C@H](C(=O)N1CCC[C@H]1c1nc2ccc(C#Cc3ccc(-c4cnc([C@@H]5CCCN5C(=O)[C@@H](C(C)C)N(C)C)[nH]4)cc3)cc2[nH]1)C(C)C [Compound 865] yielded an EC50 of under 1 nM.
Compound COC(=O)N[C@@H](C(=O)N1CCC[C@H]1c1ncc(-c2ccc(C#Cc3ccc(-c4cnc([C@@H]5CCCN5C(=O)[C@H](C(C)C)N5CCOC5=O)[nH]4)cc3)cc2)[nH]1)c1ccccc1 [Compound 1005] has an EC50 of under 1 nM.
C[C@@H](NC(=O)[C@@H]1CCCN1C(=O)[C@H](NC(=O)OC(C)(C)C)c1ccccc1)c1ccc(C#Cc2cnc([C@@H]3CCCN3C(=O)[C@H](NC(=O)OC(C)(C)C)c3ccccc3)[nH]2)cc1 [Compound 129] showed an EC50 of 10 to 999 nM.
With CC(=O)N[C@@H](C(=O)N1CCC[C@H]1c1ncc(C#Cc2ccc(-c3cnc([C@@H]4CCCN4C(=O)[C@H](NC(C)=O)c4ccccc4)[nH]3)cc2)[nH]1)c1ccccc1 [Compound 109] the EC50 was under 1 nM.
Compound COC(=O)N[C@H](C(=O)N1CCC[C@H]1c1ncc(-c2ccc(C#Cc3ccc4nc([C@@H]5CCCN5C(=O)[C@H](NC(=O)OC)c5ccccc5)[nH]c4c3)cc2)[nH]1)C(C)C [Compound 1023] has an EC50 of under 1 nM.
Compound O=C(N[C@@H](C(=O)N1CCC[C@H]1c1ncc(C#Cc2ccc(C#Cc3cnc([C@@H]4CCCN4C(=O)[C@H](NC(=O)C4CC4)c4ccccc4)[nH]3)cc2)[nH]1)c1ccccc1)C1CC1 [Compound 303] has an EC50 of under 1 nM.
C[C@@H](NC(=O)[C@@H]1CCCN1C(=O)[C@H](NC(=O)C1CC1)c1ccccc1)c1ccc(C#Cc2cnc([C@@H]3CCCN3C(=O)[C@H](NC(=O)C3CC3)c3ccccc3)[nH]2)cc1 [Compound 135] gave an EC50 of over 1000 nM.
O=C(N[C@@H](C(=O)N1CCC[C@H]1c1ncc(-c2ccc3nc(C#Cc4ccc5nc([C@@H]6CCCN6C(=O)[C@H](NC(=O)OC6CCOCC6)c6ccccc6)[nH]c5c4)ccc3c2)[nH]1)c1ccccc1)OC1CCOCC1 [Compound 1110] was tested, and the EC50 was under 1 nM.
Compound COC(=O)N[C@H](C(=O)N1CCC[C@H]1c1ncc(C#Cc2ccc3cc(C#Cc4cnc([C@@H]5CCCN5C(=O)[C@@H](NC(=O)OC)C(C)C)[nH]4)ccc3c2)[nH]1)C(C)C [Compound 1114] has an EC50 of under 1 nM.
O=S(=O)(c1ccccc1)N1CCC[C@H]1c1ncc(-c2ccc(C#Cc3ccc4nc([C@@H]5CCCN5S(=O)(=O)c5ccccc5)[nH]c4c3)cc2)[nH]1 [Compound 1038] was tested, and the EC50 was over 1000 nM.
CC(C)[C@@H](NC(=O)C1CC1)C(=O)N1CCC[C@H]1c1ncc(C#Cc2ccc(-c3cnc([C@@H]4CCCN4C(=O)[C@H](NC(=O)C4CC4)C(C)C)[nH]3)cc2)[nH]1 [Compound 107] gave an EC50 of 1 to 9.9 nM.
With COC(=O)N[C@H](C(=O)N1CCC[C@H]1c1ncc(-c2ccc(C#Cc3ccc(-c4cnc([C@@H]5CCCN5C(=O)[C@H](NC(=O)N(CCO)CCO)c5ccccc5)[nH]4)cc3)cc2)[nH]1)C(C)C [Compound 973] the EC50 was under 1 nM.
Compound CN(C)C(=O)N[C@@H](C(=O)N1CCC[C@H]1c1ncc(-c2ccc(C#Cc3ccc(-c4cnc([C@@H]5CCCN5C(=O)[C@H](NC(=O)N(C)C)c5ccccc5)[nH]4)cc3)cc2)[nH]1)c1ccccc1 [Compound 161] has an EC50 of under 1 nM.
In the case of CCN(CC)[C@@H](C(=O)N1CCC[C@H]1c1ncc(-c2ccc(C#Cc3ccc(-c4cnc([C@@H]5CCCN5C(=O)[C@H](NC(=O)OC)c5ccccc5)[nH]4)cc3)cc2)[nH]1)c1ccccc1 [Compound 175], the EC50 is reported as under 1 nM.

Same assay, conditions: Hepatitis C virus, Huh-7, read-out: Inhibition of HCV genotype 1b
For CCN(CC)C(=O)c1cc(-c2cnc([C@@H]3CCCN3C(=O)[C@@H](NC(=O)OC)C(C)C)[nH]2)ccc1C#Cc1ccc(-c2cnc([C@@H]3CCCN3C(=O)[C@@H](NC(=O)OC)C(C)C)[nH]2)cc1 [Compound 1209], the EC50 was under 1 nM.
CC[C@H](C)[C@H](NC(=O)OC)C(=O)N1CCC[C@H]1c1ncc(-c2ccc(C#Cc3ccc(-c4cnc([C@@H]5CCCN5C(=O)[C@@H](NC(=O)OC)C5CCOCC5)[nH]4)cc3)cc2)[nH]1 [Compound 1220] was tested, and the EC50 was under 1 nM.
COC(=O)N[C@H](C(=O)N1CCC[C@H]1c1ncc(-c2ccc(C#Cc3ccc(-c4cnc([C@@H]5CCCN5C(=O)[C@@H](NC(=O)OC)C(C)C)[nH]4)cc3C(=O)OC)cc2)[nH]1)C(C)C [Compound 1200] showed an EC50 of under 1 nM.
In the case of COC(=O)N[C@H](C(=O)N1CCN(C(=O)OC)C[C@H]1c1ncc(-c2ccc(C#Cc3ccc4nc([C@@H]5CCCN5C(=O)[C@H](NC(=O)OC)c5ccccc5)[nH]c4c3)cc2)[nH]1)C(C)C [Compound 1230], the EC50 is reported as under 1 nM.
For COC(=O)N[C@H](C(=O)N1CCC[C@H]1c1ncc(-c2ccc(C#Cc3ccc4nc([C@@H]5CCCN5C(=O)[C@@H](NC(=O)OC)C(C)C)[nH]c4c3)cc2F)[nH]1)C(C)C [Compound 1223], the EC50 was under 1 nM.
Work on CC[C@H](C)[C@H](NC(=O)OC)C(=O)N1CCC[C@H]1c1ncc(-c2ccc3cc(C#Cc4[nH]c([C@@H]5CCCN5C(=O)[C@@H](NC(=O)OC)[C@@H](C)CC)nc4C(F)(F)F)ccc3c2)[nH]1 [Compound 1253] yielded an EC50 of under 1 nM.

Reference: US20130296311A1, “INHIBITORS OF HCV NS5A” (PRESIDIO PHARMACEUTICALS, INC., priority 2010, published 2013)
